# Data published in ChEMBL document CHEMBL3045033, “Synthesis of new potential anticancer agents based on 4-thiazolidinone and oleanane scaffolds” (Med Chem Res, 2012).
# How the values were obtained:
# Type in all cases: functional
# [1] = test system: T47D; experiment: Cytotoxicity against Homo sapiens (human) T47D cells assessed as cellular growth at 10^-5 M after 48 hr by SRB assay relative to untreated control
# [2] = test system: SR; experiment: Cytotoxicity against Homo sapiens (human) SR cells assessed as cellular growth at 10^-5 M after 48 hr by SRB assay relative to untreated control
# [3] = test system: PC-3; experiment: Cytotoxicity against Homo sapiens (human) PC3 cells assessed as cellular growth at 10^-5 M after 48 hr by SRB assay relative to untreated control
# [4] = test system: CCRF-CEM; experiment: Cytotoxicity against Homo sapiens (human) CCRF-CEM cells assessed as cellular growth at 10^-5 M after 48 hr by SRB assay relative to untreated control
# [5] = test system: SF-295; experiment: Cytotoxicity against Homo sapiens (human) SF295 cells assessed as cellular growth at 10^-5 M after 48 hr by SRB assay relative to untreated control
# [6] = test system: BT-549; experiment: Cytotoxicity against Homo sapiens (human) BT549 cells assessed as cellular growth at 10^-5 M after 48 hr by SRB assay relative to untreated control
# [7] = test system: IGROV-1; experiment: Cytotoxicity against Homo sapiens (human) IGROV1 cells assessed as cellular growth at 10^-5 M after 48 hr by SRB assay relative to untreated control
# [8] = test system: K562; experiment: Cytotoxicity against Homo sapiens (human) K562 cells assessed as cellular growth at 10^-5 M after 48 hr by SRB assay relative to untreated control
# [9] = test system: RPMI-8226; experiment: Cytotoxicity against Homo sapiens (human) RPMI8226 cells assessed as cellular growth at 10^-5 M after 48 hr by SRB assay relative to untreated control
# [10] = test system: HL-60(TB); experiment: Cytotoxicity against Homo sapiens (human) HL-60(TB) cells assessed as cellular growth at 10^-5 M after 48 hr by SRB assay relative to untreated control
# [11] = test system: COLO 205; experiment: Cytotoxicity against Homo sapiens (human) COLO205 cells assessed as cellular growth at 10^-5 M after 48 hr by SRB assay relative to untreated control
# [12] = test system: SK-OV-3; experiment: Cytotoxicity against Homo sapiens (human) SKOV3 cells assessed as cellular growth at 10^-5 M after 48 hr by SRB assay relative to untreated control
Structure (SMILES),Activity [1] [%],Activity [2] [%],Activity [8] [%],also measured
COC(=O)[C@]12CCC(C)(C)C[C@H]1C1=CC[C@@H]3[C@@]4(C)CCC(=O)C(C)(C)[C@@H]4CC[C@@]3(C)[C@]1(C)CC2,75.65,63.87,,Activity [3]: 85.25%
COC(=O)[C@]12CCC(C)(C)C[C@H]1C1=CC[C@@H]3[C@@]4(C)CC/C(=N\OC(=O)CN5C(=O)CSC5=S)C(C)(C)[C@@H]4CC[C@@]3(C)[C@]1(C)CC2,,,,Activity [4]: 56.34%
COC(=O)[C@]12CCC(C)(C)C[C@H]1C1=CC[C@@H]3[C@@]4(C)CC/C(=N\OC(=O)CCCCCN5C(=O)CSC5=S)C(C)(C)[C@@H]4CC[C@@]3(C)[C@]1(C)CC2,76.91,42.83,,
COC(=O)[C@]12CCC(C)(C)C[C@H]1C1=CC[C@@H]3[C@@]4(C)CC/C(=N\OC(=O)CN5C(=O)/C(=C/c6ccc(OC)cc6)SC5=S)C(C)(C)[C@@H]4CC[C@@]3(C)[C@]1(C)CC2,,,,Activity [5]: 72.97%; Activity [6]: 67.36%
COC(=O)[C@]12CCC(C)(C)C[C@H]1C1=CC[C@@H]3[C@@]4(C)CC/C(=N\OC(=O)CCN5C(=O)/C(=C/c6ccc(N(C)C)cc6)SC5=S)C(C)(C)[C@@H]4CC[C@@]3(C)[C@]1(C)CC2,,,,Activity [7]: 82.21%
CC1(C)CC[C@]2(C(=O)O)CC[C@]3(C)C(=CC[C@@H]4[C@@]5(C)CC/C(=N\OC(=O)CC6SC(=O)NC6=O)C(C)(C)[C@@H]5CC[C@]43C)[C@@H]2C1 (some centres undefined),,54.18,54.55,
CC1(C)CC[C@]2(C(=O)N3CCOCC3)CC[C@]3(C)C(=CC[C@@H]4[C@@]5(C)CC/C(=N\OC(=O)CC6SC(=O)NC6=O)C(C)(C)[C@@H]5CC[C@]43C)[C@@H]2C1 (some centres undefined),29.41,48.74,,Activity [9]: 21.46%; Activity [10]: 42.47%
CC1(C)CC[C@@]23CC[C@]4(C)[C@@](OC2=O)([C@@H]3C1)[C@@H](Br)C[C@@H]1[C@@]2(C)CC/C(=N\OC(=O)/C=C3/SC(=O)NC3=O)C(C)(C)[C@@H]2CC[C@]14C,24.85,29.41,27.12,Activity [9]: 26.82%; Activity [10]: 26.14%
CC1(C)CC[C@@]23CC[C@]4(C)[C@@](OC2=O)([C@@H]3C1)[C@@H](Br)C[C@@H]1[C@@]2(C)CCC(=O)C(C)(C)[C@@H]2CC[C@]14C,,,78.11,Activity [5]: 270.75%; Activity [11]: 302.68%; Activity [12]: 335.31%
